From ChEMBL document CHEMBL5625214, “Synthesis of glycyrrhizin analogues as HMGB1 inhibitors and their activity against sepsis in acute kidney injury” (Eur J Med Chem, 2023)
Calls of active or inactive are those of the source. No cut-off for these calls is given here.

Legend:
[1] = Cytotoxicity against mouse RAW264.7 cells assessed as cell survival at 30 uM incubated for 24 hrs by MTT assay relative to control; type: toxicity, cell-based; settings: read-out: Activity
[2] = Cytotoxicity against human WI-38 cells assessed as inhibition of cell viability incubated for 24 hrs by MTT assay; type: toxicity, cell-based
[3] = test system: A549; assay: Cytotoxicity against human A549 cells assessed as inhibition of cell viability incubated for 24 hrs by MTT assay; type: functional, cell-based; settings: A549, 24 h
[4] = Cytotoxicity against human HK-2 cells assessed as inhibition of cell viability incubated for 24 hrs by MTT assay; type: toxicity, cell-based
[5] = test system: Huh-7; assay: Cytotoxicity against human Huh-7 cells assessed as inhibition of cell viability incubated for 24 hrs by MTT assay; type: functional, cell-based; settings: Huh-7, 24 h
[6] = Cytotoxicity against rat H9c2 cells assessed as inhibition of cell viability incubated for 24 hrs by MTT assay; type: toxicity, cell-based
[7] = test system: RAW264.7; assay: Inhibition of NO release in mouse RAW264.7 cells incubated for 24 hrs by Griess reagent based assay; type: functional, cell-based; settings: RAW264.7, 24 h
[8] = Cytotoxicity against mouse RAW264.7 cells assessed as cell survival at 60 uM incubated for 24 hrs by MTT assay relative to control; type: toxicity, cell-based; settings: read-out: Activity
[9] = test system: Mus musculus; assay: Anti-septic activity in C57BL/6 mouse model assessed as reversal of LPS-induced kidney injury at 15 mg/kg, ip qd treated for 7 days by H and E staining based analysis; type: functional, organism-based; settings: time 7.0 day
[10] = test system: Mus musculus; assay: Anti-septic activity in C57BL/6 mouse model assessed as reversal of LPS-induced kidney injury at 30 mg/kg, ip qd treated for 7 days by H and E staining based analysis; type: functional, organism-based; settings: time 7.0 day
[11] = test system: Mus musculus; assay: Anti-septic activity in C57BL/6 mouse model assessed as reversal of LPS-induced damage of renal tubules at 15 to 30 mg/kg, ip qd treated for 7 days by H and E staining based analysis; type: functional, organism-based; settings: dose 15-30 mg/kg, time 7.0 day
[12] = test system: Mus musculus; assay: Anti-septic activity in C57BL/6 mouse model assessed as reversal of LPS-induced accumulation of interstitial vacoules in kidney at 30 mg/kg, ip qd treated for 7 days by H and E staining based analysis; type: functional, organism-based; settings: time 7.0 day
[13] = test system: Mus musculus; assay: Anti-septic activity in C57BL/6 mouse model assessed as reversal of LPS-induced inflammatory cell infiltration in renal interstitium at 15 mg/kg, ip qd treated for 7 days by H and E staining based analysis; type: functional, organism-based; settings: time 7.0 day
[14] = test system: Mus musculus; assay: Anti-septic activity in C57BL/6 mouse model assessed as reversal of LPS-induced disappearance of renal internal brush border structure at 30 mg/kg, ip qd treated for 7 days by H and E staining based analysis; type: functional, organism-based; settings: time 7.0 day
[15] = test system: Mus musculus; assay: Anti-septic activity in C57BL/6 mouse model assessed as reversal of LPS-induced inflammatory cell infiltration in renal interstitium at 30 mg/kg, ip qd treated for 7 days by H and E staining based analysis; type: functional, organism-based; settings: time 7.0 day

Row | Structure (SMILES) | viability at 24 h, 30 µM [1] | IC50 at 24 h [2] | IC50 [3] | IC50 at 24 h [4] | IC50 [5] | IC50 at 24 h [6] | IC50 [7] | viability at 24 h, 60 µM [8] | Activity [9] | Activity [10] | Activity [11] | Activity [12] | Activity [13] | Activity [14] | Activity [15]
1 | CC(=O)OC[C@@H]1OC(n2cc(COC(=O)[C@@]3(C)CC[C@]4(C)CC[C@]5(C)C(=CC(=O)[C@@H]6[C@@]7(C)CC[C@H](OC(=O)CCc8ccccc8)C(C)(C)C7CC[C@]65C)[C@H]4C3)nn2)[C@@H](OC(C)=O)[C@H](OC(C)=O)[C@H]1OC(C)=O (stereo partly specified) | > 70% | > 800 µM | 207 µM | 398 µM | 206 µM | 294 µM | 30.7 µM |  |  |  |  |  |  |  | 
2 | CC(=O)OC[C@@H]1OC(n2cc(COC(=O)[C@@]3(C)CC[C@]4(C)CC[C@]5(C)C(=CC(=O)[C@@H]6[C@@]7(C)CC[C@H](OC(=O)CCc8ccccc8)C(C)(C)C7CC[C@]65C)[C@H]4C3)nn2)[C@H](OC(C)=O)[C@H](OC(C)=O)[C@@H]1OC(C)=O (stereo partly specified) | > 70% | 590 µM | 108 µM | > 800 µM | 174 µM | > 800 µM | 40.8 µM |  |  |  |  |  |  |  | 
3 | COC(=O)[C@@]1(C)CC[C@]2(C)CC[C@]3(C)C(=CC(=O)[C@@H]4[C@@]5(C)CC[C@H](OCc6cn(C7O[C@H](COC(C)=O)[C@@H](OC(C)=O)[C@H]7OC(C)=O)nn6)C(C)(C)C5CC[C@]43C)[C@H]2C1 (stereo partly specified) |  | 93.9 µM | 27.8 µM | 59.7 µM | 30.1 µM | 77 µM |  |  |  |  |  |  |  |  | 
4 | COC(=O)[C@@]1(C)CC[C@]2(C)CC[C@]3(C)C(=CC(=O)[C@@H]4[C@@]5(C)CC[C@H](OCc6cn(C7O[C@H](COC(C)=O)[C@@H](OC(C)=O)[C@H](OC(C)=O)[C@@H]7OC(C)=O)nn6)C(C)(C)C5CC[C@]43C)[C@H]2C1 (stereo partly specified) |  | 89.4 µM | 23.1 µM | 57.2 µM | 19.7 µM | 65.3 µM |  |  |  |  |  |  |  |  | 
5 | CC(=O)O[C@H]1[C@H](C)OC(n2cc(COC(=O)[C@@]3(C)CC[C@]4(C)CC[C@]5(C)C(=CC(=O)[C@@H]6[C@@]7(C)CC[C@H](OC(=O)CCc8ccccc8)C(C)(C)C7CC[C@]65C)[C@H]4C3)nn2)C[C@@H]1OC(C)=O (stereo partly specified) | > 70% | > 800 µM | 100 µM | > 800 µM | 112 µM | 406 µM | 30.8 µM | < 70% |  |  |  |  |  |  | 
6 | CC1(C)[C@@H](O[C@H]2O[C@H](C(=O)O)[C@@H](O)[C@H](O)[C@H]2O[C@@H]2O[C@H](C(=O)O)[C@@H](O)[C@H](O)[C@H]2O)CC[C@]2(C)[C@H]3C(=O)C=C4[C@@H]5C[C@@](C)(C(=O)O)CC[C@]5(C)CC[C@@]4(C)[C@]3(C)CC[C@@H]12 [GLYCYRRHIZIN] | > 70% | 128 µM | 80.3 µM | 160 µM | 65.7 µM | 102 µM | 20.7 µM |  | inactive | Active | Active | Active | inactive | Active | Active
7 | CC(=O)OC[C@@H]1OC(n2cc(COC(=O)[C@@]3(C)CC[C@]4(C)CC[C@]5(C)C(=CC(=O)[C@@H]6[C@@]7(C)CC[C@H](OC(=O)CCc8ccccc8)C(C)(C)C7CC[C@]65C)[C@H]4C3)nn2)[C@@H](OC(C)=O)[C@H](OC(C)=O)[C@@H]1OC(C)=O (stereo partly specified) |  | 201 µM | 93.4 µM | 127 µM | 86.2 µM | 114 µM | 22.8 µM | < 70% |  |  |  |  |  |  | 
8 | CC(=O)OC[C@@H]1OC(n2cc(COC(=O)[C@@]3(C)CC[C@]4(C)CC[C@]5(C)C(=CC(=O)[C@@H]6[C@@]7(C)CC[C@H](OC(=O)CCc8ccccc8)C(C)(C)C7CC[C@]65C)[C@H]4C3)nn2)[C@@H](OC(C)=O)[C@H]1OC(C)=O (stereo partly specified) | > 70% | 348 µM | 92.8 µM | 557 µM | 91.3 µM | 330 µM | 46.2 µM | < 70% |  |  |  |  |  |  | 
9 | COC(=O)[C@@]1(C)CC[C@]2(C)CC[C@]3(C)C(=CC(=O)[C@@H]4[C@@]5(C)CC[C@H](OCc6cn(C7O[C@H](COC(C)=O)[C@@H](OC(C)=O)[C@H](OC(C)=O)[C@H]7OC(C)=O)nn6)C(C)(C)C5CC[C@]43C)[C@H]2C1 (stereo partly specified) |  | 105 µM | 32.7 µM | 56.1 µM | 23.5 µM | 87.8 µM |  |  |  |  |  |  |  |  | 
10 | COC(=O)[C@@]1(C)CC[C@]2(C)CC[C@]3(C)C(=CC(=O)[C@@H]4[C@@]5(C)CC[C@H](OCc6cn(C7O[C@H](COC(C)=O)[C@H](OC(C)=O)[C@H](OC(C)=O)[C@H]7OC(C)=O)nn6)C(C)(C)C5CC[C@]43C)[C@H]2C1 (stereo partly specified) |  | 96.4 µM | 39.4 µM | 42.2 µM | 28 µM | 92.4 µM |  |  |  |  |  |  |  |  | 
